The test system of test [1] is 5xFAD mice. The test can be described thus: Passive avoidance test. In kind it is in vivo, mouse. Conditions: 10 mg/kg orally once a day for 1 month, FIG. 22. On the procedure: (§1) The experiment was conducted with 5X-FAD transgenic mice having Alzheimer’s disease introduced therein. The 5X FAD mouse is an animal model of Alzheimer’s disease with all the human AD-linked mutations: Swedish (K670N/ […]), Florida (1716V) and London (V7171) in APP (695) and M146L in Presenilin 1
(§2) 5xFAD mice were purchased from Jackson Lab and bred in and in through mating with C57B16/SJL F1 females, based on the information provided by the supplier. Through genotyping, the mice were divided into groups of 7-9 members, including normal groups (WT) and genetically modified groups (5xFAD): 4.5-month-old 5xFAD mice (Tg) and age-matched controls (WT). To the WT or Tg groups, a vehicle or SPA1413 was orally administered at a dose of 10 mg/kg once a day for 1 month. To test whether SPA1413 has a therapeutic effect on Alzheimer’s disease, the mice in 5 groups (WT-vehicle; WT-SPA1413 5xFAD-vehicle; 5xFAD-SPA1413; and 5xFAD-donepezil) were evaluated for cognitive ability.
Passive avoidance test: Memory impairment was evaluated using the passive avoidance test. […] After being trained to learn that an unpleasant stimulus was given thereto in the dark room, the mice were evaluated for memory for the corresponding content as step-through latency.

For test [2], the system named is primary microglial cells treated with beta amyloid oligomer (AB1-40). The test can be described thus: Cell viability of primary microglia treated with beta amyloid oligomer. In kind it is cell-based, ICR mice. Conditions: 5 µM for 1 hour, then AB1-40 10 µM 24 hours; FIG. 15. As for the experimental part: Mouse-derived microglia (BV2 cells) purchased from the Korean Cell Line Bank were seeded at a density of 4x10^5 cells/well into 96-well plates, each well containing DMEM (Dulbecco’s Modified Eagle’s Media) supplemented with 10% FBS and 1% antibiotics, and stabilized by incubation for 24 hours. Thereafter, the cells were treated for 24 hours with various concentrations (0.5, 1, and 5 µM) of daidzein, o-desmethylangolensin (O-DMA), S-equal, SPA1413, and SPA1426. After removal of the medium, the cells were treated 0.5 mg/ml 3-(4,5-dimethylthiazol-2-yl)-2,5-diphenyltetrazolium bromide (MTT) solution 1 hour. The reduced formazan was dissolved in 150 µl of dimethyl sulfoxide (DMSO) and absorbance was read at 570 nm in a microspectrophotometer to determine cell viability. Cell viability of the cells treated with each sample was determined relative to that of the untreated normal control (Control), which was set to be 100%, and the results are depicted in FIGS. 3 and 4 (upper).
Primary microglial cells isolated from the brain of 1-year-old ICR mice were seeded at a density of 2x10^5 cells/well into 96-well plates and stabilized for 24 hours. Thereafter, the cells were treated with 5 µM of daidzein, S-equal, SPA1413, or SPA1426 for 1 hour and then with beta amyloid oligomer (AB1-40, 10 µM) for 24 hours at 37° C. Cell viability was assayed in the same manner as in Experimental Example 2.

Test [3] has as its system PSEN1 gene expression in PSEN1-overexpressed HEK293 cells. Put plainly: Inhibition of dementia gene PSEN1 expression (qRT-PCR). In kind it is cell-based. Conditions: 0.1 and 1 µM, 24 hours, FIG. 17. On the procedure: HEK293 cells and PSEN1-overexpressed HEK293 cells were seeded at a density of 1x10^6 cells/well into 6-well plates containing a DMEM medium and stabilized overnight, following by treating the cells with or without various concentrations (0.1 and 1 µM) of the sample (SPA1413) for 24 hours. Thereafter, RNA was extracted from the cells, using TRIzol reagent. Reverse transcription was performed using the GoScript™ reverse transcription system according to the manufacturer’s instructions. A qRT-PCR reaction was performed in a volume of 20 µl using the standard SYBR Green PCR kit and Roche Light® Instrument according to the standard protocol. Relative gene expression levels were calculated by the 2^-ΔΔCt method.
Background: Real-time PCR tracks product formation cycle by cycle.

The subject of test [4] is oligomeric Aβ proteins in cortex and hippocampus of 5xFAD mice. The test can be described thus: Western blotting of oligomeric Aβ proteins in brain tissue. In kind it is in vivo, mouse. The following applies: 10 mg/kg, FIG. 28. On the procedure:
as §2
After the animal behavior experiments, the brain tissues of the experimental animals were recovered, the brain tissues in the cortex and hippocampus regions of one hemisphere were separated, frozen, and stored until use. The tissues were thawed on the test day and treated with a lysis solvent, followed by protein isolation and quantitation. […]
The images of the western blots analyzed for oligomeric Aβ proteins (60-70 kDa) in the cortex and hippocampus of 5xFAD-vehicle and 5xFAD-SPA1413 group animals are presented in FIG. 28, and the band intensity was analyzed and quantified using the image j program.
For orientation: A western blot detects proteins with antibodies after separation by electrophoresis.

In test [5] the test system is amyloid plaques in cortex and hippocampus of 5xFAD mice. The test can be described thus: Immunohistochemical assay of amyloid plaques (6E10 antibody, Thioflavin S). The following applies: 10 mg/kg, FIGS. 24 and 25. The test is classed as in vivo, mouse. As for the experimental part: as §2
After the animal behavior experiments, the brain tissues of the experimental animals were recovered, sectioned, and then stained with Thioflavin S for immunostaining chemistry using the 6E10 antibody.
Immunohistochemical staining is a technique for detecting specific proteins within tissues by staining the same. […] The stained tissues were observed through a fluorescence microscope, and the images are depicted in FIG. 23.
The quantitative analysis results of the images of the tissues stained with the 6E10 antibody and Thioflavin S are presented in FIGS. 24 and 25. Five experimental animals were selected from each group and analyzed. […]

For test [6], the system named is 5xFAD mice. The test can be described thus: Y-maze test. The test is classed as in vivo, mouse. The following applies: 10 mg/kg orally once a day for 1 month, vs 5xFAD-saline group, FIG. 21. On the procedure: as §1, §2
Memory impairment was evaluated using the Y-shaped maze test. For the Y-shaped maze test, a Y-shaped arm was installed in a water tank. […] After a random number was assigned to each arm, the arm number in which the animal entered was recorded. Memory was assessed by the animal’s ability to remember the route it had taken and to try to navigate the new route.

For test [7], the system named is MHC II-positive microglia in cortex and hippocampus of 5xFAD mice. The test can be described thus: MHC II-positive activated microglia in brain tissue. The test is classed as in vivo, mouse. The following applies: 10 mg/kg, FIGS. 26 and 27.

Consider `Oc1ccc(C2=Cc3ccc(O)cc3OC2)cc1` [SPA1413, 3-(4-Hydroxyphenyl)-2H-chromen-7-ol], for which the step-through latency entry with 5xFAD mice [1] is given as “significantly recovered”. Besides, in test [2], the “cell viability after beta amyloid oligomer treatment” value was “significantly increased in cell viability”. The PSEN1 gene expression entry in test [3] was “inhibited the upregulated expression of PSEN1 gene”. In addition, the “level of oligomeric Aβ proteins (60-70 kDa) in the cortex and hippocampus” value in test [4] is reported as “significantly reduce”. For the same molecule, the “amyloid plaques in the cortex and hippocampus” value in test [5] is “significantly reduced”. Besides, in the test on 5xFAD mice [6], the total arm entries entry was “no significant difference”. Also, the “number of activated microglia showing a positive MHC II reaction” value in test [7] was “significantly decrease”.

These data come from US20230330059A1, “3-PHENYL-2H-CHROMENE DERIVATIVE AND PHARMACEUTICAL COMPOSITION FOR PREVENTING OR TREATING ALZHEIMER'S, CONTAINING SAME” (NEUROBIONET, INC., priority 2020, published 2023).
